Six compounds from patent US20260347373A1, “HETEROCYCLIC COMPOUNDS, COMPOSITIONS THEREOF, AND METHODS OF TREATMENT THEREWITH” (BeOne Medicines I GmbH, priority 2023, published 2026) can be followed below.

Structures are written as SMILES. Counter-ions that a name gives are not always drawn. Like-named read-outs stand apart in the source and are kept apart here.

The target of one experiment is KRAS G12D (Homo sapiens, UniProt P01116, G12D). The experiment is described as follows: KRAS G12D Probe Displacement Assay (TR-FRET, GDP-loaded). It is filed as binding. The source says:
(§1) The synthetic routes of probe 1 and 2, which have been disclosed in PCT/CN2022/070676, are hereby incorporated herein.
Background: Time-resolved FRET reads energy transfer from a long-lived donor to a nearby acceptor.

The next experiment addresses WT KRAS (Homo sapiens, UniProt P01116). The experiment in a line: KRAS WT Probe Displacement Assay (TR-FRET, GDP-loaded). It is filed as binding.
Source text: as §1

The mark [1] stands for this setting: KRAS G12D, read-out: KRAS^G12D Probe Displacement Assay IC50.
[2] abbreviates: KRAS WT, read-out: KRAS^WT Probe Displacement Assay IC50.

Sequence of WT KRAS (P01116 1-188 isoform P01116-2): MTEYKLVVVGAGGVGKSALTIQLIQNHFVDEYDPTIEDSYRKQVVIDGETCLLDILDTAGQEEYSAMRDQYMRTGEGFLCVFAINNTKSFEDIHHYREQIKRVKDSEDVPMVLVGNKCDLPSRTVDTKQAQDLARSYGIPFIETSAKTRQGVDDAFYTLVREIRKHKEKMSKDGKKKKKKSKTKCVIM
Sequence of KRAS G12D (P01116 1-188 isoform P01116-2 G12D): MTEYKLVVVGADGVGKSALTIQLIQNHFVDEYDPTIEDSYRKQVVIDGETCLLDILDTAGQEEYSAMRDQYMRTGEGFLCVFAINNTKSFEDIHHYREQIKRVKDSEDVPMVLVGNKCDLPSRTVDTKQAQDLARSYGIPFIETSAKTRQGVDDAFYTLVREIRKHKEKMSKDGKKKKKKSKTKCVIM

For the compound `CCN1CCN(CC2(COc3nc4c5c(nc(-c6cc(N)cc(C)c6C(F)(F)F)c(F)c5n3)OCC[C@@H]3[C@@H]5CC[C@H](CN43)N5)CC2)CC1` [Example 152, 3-((6aR,7S,10R)-13-((1-((4-ethylpiperazin-1-yl)methyl)cyclopropyl)methoxy)-1-fluoro-5,6,6a,7,8,9,10,11-octahydro-4-oxa-3,11a,12,14,15-pentaaza-7,10-methano-cyclohepta[4,5]cycloocta [1,2,3-de]naphthalen-2-yl)-5-methyl-4-(trifluoromethyl) aniline], the IC50 (as a rule, the concentration at which inhibition is half-maximal) at KRAS G12D (KRAS^G12D Probe Displacement Assay IC50, KRAS G12D) was less than 0.3 nM; at WT KRAS (KRAS^WT Probe Displacement Assay IC50, KRAS WT), 3 to 1000 nM.
In the case of `Cc1nc(N)cc(-c2nc3c4c(nc(OCC5(CN6CCC(=CF)CC6)CC5)nc4c2F)N2C[C@H]4CC[C@H](N4)[C@H]2CCO3)c1C(F)(F)F` [Example 155, 4-((6aR,7S,10R)-1-fluoro-13-((1-((4-(fluoromethylene)piperidin-1-yl)methyl)cyclopropyl)methoxy)-5,6,6a,7,8,9,10,11-octahydro-4-oxa-3,11a,12,14,15-pentaaza-7,10-methanocyclohepta[4,5]cycloocta [1,2,3-de]naphthalen-2-yl)-6-methyl-5-(trifluoromethyl)pyridin-2-amine], the values for the IC50 on KRAS G12D (setting [1]) and on WT KRAS (setting [2]) were less than 0.3 nM and 3 to 1000 nM, respectively.
Regarding `Cc1cc(N)cc(-c2nc3c4c(nc(OCC5(CN6C[C@H](O)[C@@H](F)C6)CC5)nc4c2F)N2C[C@H]4CC[C@H](N4)[C@H]2CCO3)c1C(F)(F)F` (stereo in doubt) [Example 94, trans-1-((1-((((6aR, 7S,10R)-2-(5-amino-3-methyl-2-(trifluoromethyl)phenyl)-1-fluoro-5,6,6a,7,8,9,10,11-octahydro-4-oxa-3,11a,12,14,15-pentaaza-7,10-methanocyclohepta [4,5]cycloocta[1,2,3-de]naphthalen-13-yl)oxy)methyl)cyclopropyl)methyl)-4-fluoropyrrolidin-3-ol formate], the results for the IC50 at KRAS G12D (setting [1]) and on WT KRAS (setting [2]) were less than 0.3 nM and 3 to 1000 nM, respectively.
Take `Cc1cc(N)cc(-c2nc3c4c(nc(OCC5(CN6C[C@@H](F)[C@@H](O)C6)CC5)nc4c2F)N2C[C@H]4CC[C@H](N4)[C@H]2CCO3)c1C(F)(F)F` (stereo in doubt) [Example 95, cis-1-((1-((((6aR, 7S,10R)-2-(5-amino-3-methyl-2-(trifluoromethyl)phenyl)-1-fluoro-5,6,6a,7,8,9,10,11-octahydro-4-oxa-3,11a,12,14,15-pentaaza-7,10-methanocyclohepta [4,5]cycloocta[1,2,3-de]naphthalen-13-yl)oxy)methyl)cyclopropyl)methyl)-4-fluoropyrrolidin-3-ol formate]: the IC50 is less than 0.3 nM at KRAS G12D (setting [1]) and 3 to 1000 nM on WT KRAS (setting [2]).
The corresponding values for `Cc1cc(N)cc(-c2nc3c4c(nc(OCC5(CN6CCOC[C@H]6C)CC5)nc4c2F)N2C[C@H]4CC[C@H](N4)[C@H]2CCO3)c1C(F)(F)F` [Example 163, 3-((6aR,7S,10R)-1-fluoro-13-((1-(((R)-3-methylmorpholino)methyl)cyclopropyl)methoxy)-5,6,6a,7,8,9,10,11-octahydro-4-oxa-3,11a,12,14,15-pentaaza-7,10-methanocyclohepta[4,5]cycloocta[1,2,3-de]naphthalen-2-yl)-5-methyl-4-(trifluoromethyl)aniline] are less than 0.3 nM and 3 to 1000 nM.
The corresponding values for `[2H]C([2H])([2H])N1CCC(C(F)F)C(C)(C([2H])([2H])Oc2nc3c4c(nc(-c5cc(N)cc(Cl)c5C(F)(F)F)c(F)c4n2)OCC[C@@H]2[C@@H]4CC[C@H](CN32)N4)C1` (single isomer, unassigned) [Example 247] are less than 0.3 nM and 0.3 to 3 nM.
